From patent publication US12454520B2, “Protein degraders and uses thereof” (Kymera Therapeutics, Inc., priority 2018, dated 2025)

target: T1, SMARCA2 (Homo sapiens, UniProt P51531); test: MSD SMARCA2 degradation in NCI-H1299 cell line; assay type: cell-based; details: NCI-H1299 cells, percentage of SMARCA2 degradation after 24 hours
T1 construct: endogenous in cells; host or cells: NCI-H1299
Protocol: Example 14. MSD SMARCA2 Degration in NCI-H1299 Cell Line
Cell Culture: Cells were cultured in exponential growth phase.
Compound Preparation and Treatment: NCI-H1299 cells were seeded into the 96-well plate at 4.0*10^4 cells per 100ul per well. Incubate the plate in the incubator overnight. The next day, compounds were diluted to designed stock concentration by TECAN, then perform a 3 fold, 9-point dilution via transferring 15 uL compound into 30 μL DMSO using Apricot. 200 nL diluted compound from compound source plate were transferred into the 96-intermediate plate as designated by using Echo550, followed with 100 ul culture medium to make the 2× compound solution. Cell plate were changed with 80 ul of fresh culture medium and 80 ul of 2× compound solution was added into the well to achieve the final designed concentration. Cell plate was then shaken at 720 rpm for 5 min and incubated for 24 hours in the incubator.
Sample Preparation: Media was aspirated from the cultures and the plate was washed with PBS twice. 60 ul of pre-chilled PIPA lysis buffer (Boston BioProducts BP-115D) with protease inhibitor were directly added into the well to lyze the cells for 20 minutes at 4° C. Cell lysates were collected.
MSD Procedure: The MSD plate was coated with 40 ul cell lysate and incubated at 4° C. overnight. The next day, the MSD coated bare plate was washed 3 times with 150 ul 1×TBST per well, blocked with 150 ul of blocking buffer per well, and shaken for 1 hour at RT, 600 rpm. Blocking buffer was 3% Blocker A in TBST. MSD plate was then washed 3 times with 150 ul 1×TBST per well and Primary Detection antibody (Rabbit anti-SMARCA2/BRM antibody, 100 μg/ml, ab223735) was added to a final [conc.]: 0.3 ug/ml, 25ul/well and shaken for 1 hour at RT, 600 rpm. Antibody was prepared in Antibody Detection buffer (1% Blocker A in 1×TBST). The MSD plate was then washed 3 times with 150 ul 1×TBST per well. Secondary Detection antibody (SULFO-TAG anti-species antibody) was then added to a final [conc.]: 1 μg/ml, 25 ul/well, and shaken for 1 hour at RT, 600 rpm. Antibodies were prepared in Antibody Detection buffer (1% Blocker A in 1×TBST). MSD plate was washed 3 times with 150 ul 1×TBST per well and 2×MSD reading buffer was added, 150 ul per well, and diluted from 4× with water. MSD instrument was then read.
Data Analysis: The percentage of relative level of SMARCA2 level was calculated following equation below.
LC: A2780, SMARCA2 negative cells. HC: NCI-H1299 cells treated with DMSO.
The letter codes for the percentage of SMARCA2 degradation after 24 hours (Dmax %) include: A (>90% degradation), B (>70-90% degradation), C (50-70% degradation), and D (<50% degradation).

T1 sequence (P51531 whole entry): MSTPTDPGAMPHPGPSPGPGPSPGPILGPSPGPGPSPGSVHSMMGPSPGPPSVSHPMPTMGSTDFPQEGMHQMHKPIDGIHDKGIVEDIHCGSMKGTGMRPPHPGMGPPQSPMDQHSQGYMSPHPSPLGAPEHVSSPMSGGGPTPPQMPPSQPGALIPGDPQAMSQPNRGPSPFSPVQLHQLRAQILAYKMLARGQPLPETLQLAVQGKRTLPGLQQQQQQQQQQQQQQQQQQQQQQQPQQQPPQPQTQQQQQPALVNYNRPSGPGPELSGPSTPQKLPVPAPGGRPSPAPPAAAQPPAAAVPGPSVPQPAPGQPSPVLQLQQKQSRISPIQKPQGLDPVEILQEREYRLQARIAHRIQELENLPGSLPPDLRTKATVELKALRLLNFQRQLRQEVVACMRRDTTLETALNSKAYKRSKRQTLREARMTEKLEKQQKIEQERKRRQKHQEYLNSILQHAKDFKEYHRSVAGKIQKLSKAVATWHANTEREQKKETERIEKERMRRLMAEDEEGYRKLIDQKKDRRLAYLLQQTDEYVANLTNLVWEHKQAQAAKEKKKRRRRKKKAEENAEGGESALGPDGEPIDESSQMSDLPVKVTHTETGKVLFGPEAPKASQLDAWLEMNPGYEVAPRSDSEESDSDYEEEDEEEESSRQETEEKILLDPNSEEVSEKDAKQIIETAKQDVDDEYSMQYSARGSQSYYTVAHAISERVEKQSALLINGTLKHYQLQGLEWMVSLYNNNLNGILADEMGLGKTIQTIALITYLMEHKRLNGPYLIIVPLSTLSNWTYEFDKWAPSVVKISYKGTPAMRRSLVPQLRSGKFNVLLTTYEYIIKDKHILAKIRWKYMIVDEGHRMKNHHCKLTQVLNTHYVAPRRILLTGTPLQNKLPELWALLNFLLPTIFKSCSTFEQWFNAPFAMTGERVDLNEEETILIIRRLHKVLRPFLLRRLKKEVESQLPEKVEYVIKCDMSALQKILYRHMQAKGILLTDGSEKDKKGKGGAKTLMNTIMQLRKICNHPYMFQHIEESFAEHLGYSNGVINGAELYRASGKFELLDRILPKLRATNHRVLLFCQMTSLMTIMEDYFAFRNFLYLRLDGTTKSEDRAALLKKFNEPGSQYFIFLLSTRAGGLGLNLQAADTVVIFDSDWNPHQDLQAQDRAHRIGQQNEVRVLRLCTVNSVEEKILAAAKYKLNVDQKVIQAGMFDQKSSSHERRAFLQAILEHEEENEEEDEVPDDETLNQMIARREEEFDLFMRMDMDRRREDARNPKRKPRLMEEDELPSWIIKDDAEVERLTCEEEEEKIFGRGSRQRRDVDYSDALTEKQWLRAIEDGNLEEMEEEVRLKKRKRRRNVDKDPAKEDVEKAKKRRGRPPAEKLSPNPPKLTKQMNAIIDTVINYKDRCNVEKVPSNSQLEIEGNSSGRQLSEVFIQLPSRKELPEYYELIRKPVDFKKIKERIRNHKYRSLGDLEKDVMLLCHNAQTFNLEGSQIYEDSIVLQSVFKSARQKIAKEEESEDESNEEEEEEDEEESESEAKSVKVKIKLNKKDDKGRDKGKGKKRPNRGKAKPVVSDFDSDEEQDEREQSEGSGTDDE

Dmax [%] | SMILES
70 to 90 | Nc1nnc(-c2ccccc2O)cc1-c1ccc(CN2CCN(CCCCCc3ccnc4c3c3ccccc3n4C3CCC(=O)NC3=O)CC2)cc1 (stereo not shown) [I-81]
70 to 90 | Nc1nnc(-c2ccccc2O)cc1-c1cnn(CC2CCN(CCCCc3ccc4c(c3)c3cccnc3n4C3CCC(=O)NC3=O)CC2)c1 (stereo not shown) [I-134]
70 to 90 | Nc1nnc(-c2ccccc2O)cc1-c1ccc(CN2CCN(CCCCCCc3ccnc4c3c3ccccc3n4C3CCC(=O)NC3=O)CC2)cc1 (stereo not shown) [I-82]
< 50 | Nc1nnc(-c2ccccc2O)cc1-c1cnn(CC2COC(CCCCc3ccc4c(c3)c3cccnc3n4C3CCC(=O)NC3=O)OC2)c1 (stereo not shown) [I-140, 3-(6-(4-(5-((4-(3-amino-6-(2-hydroxyphenyl)pyridazin-4-yl)-1H-pyrazol-1-yl)methyl)-1,3-dioxan-2-yl)butyl)-9H-pyrido[2,3-b]indol-9-yl)piperidine-2,6-dione]
70 to 90 | Nc1nnc(-c2ccccc2O)cc1-c1ccc(CNCCOCCOCCCc2cnc3c(c2)c2ccccc2n3C2CCC(=O)NC2=O)cc1 (stereo not shown) [I-88]
70 to 90 | Nc1nnc(-c2ccccc2O)cc1-c1ccc(CN2CCN(CCCCCCCc3ccc4c(c3)c3cccnc3n4C3CCC(=O)NC3=O)CC2)cc1 (stereo not shown) [I-75]
50 to 70 | CN(CCCc1cccc2c1c1cccnc1n2C1CCC(=O)NC1=O)Cc1ccc(N2CCN(c3cc(-c4ccccc4O)nnc3N)CC2)cc1 (stereo not shown) [I-94]
< 50 | Nc1nnc(-c2ccccc2O)cc1N1CCN(Cc2cccc3c2c2cccnc2n3C2CCC(=O)NC2=O)CC1 (stereo not shown) [I-90]
70 to 90 | Nc1nnc(-c2ccccc2O)cc1-c1cnn(C2CCN(Cc3cn(Cc4ccc5c(c4)c4cccnc4n5C4CCC(=O)NC4=O)nn3)CC2)c1 (stereo not shown) [I-146, 3-(6-((4-((4-(4-(3-amino-6-(2-hydroxyphenyl)pyridazin-4-yl)-1H-pyrazol-1-yl)piperidin-1-yl)methyl)-1H-1,2,3-triazol-1-yl)methyl)-9H-pyrido[2,3-b]indol-9-yl)piperidine-2,6-dione]
> 90 | Nc1nnc(-c2ccccc2O)cc1-c1cnn(C2CCCN(CCCc3ccnc4c3c3ccccc3n4C3CCC(=O)NC3=O)C2)c1 (stereo not shown) [I-143]
50 to 70 | CN(CCCCCc1ccnc2c1c1ccccc1n2C1CCC(=O)NC1=O)Cc1ccc(N2CCN(c3cc(-c4ccccc4O)nnc3N)CC2)cc1 (stereo not shown) [I-102]
50 to 70 | Nc1nnc(-c2ccccc2O)cc1-c1ccc(CN2CCN(CCCCCc3cccc4c3c3cccnc3n4C3CCC(=O)NC3=O)CC2)cc1 (stereo not shown) [I-78]
> 90 | Nc1nnc(-c2ccccc2O)cc1-c1ccc(CN2CCN(CCCCCCCCCc3ccc4c(c3)c3cccnc3n4C3CCC(=O)NC3=O)CC2)cc1 (stereo not shown) [I-77]
< 50 | CN(CCCc1ccnc2c1c1ccccc1n2C1CCC(=O)NC1=O)Cc1ccc(N2CCN(c3cc(-c4ccccc4O)nnc3N)CC2)cc1 (stereo not shown) [I-101]
> 90 | Nc1nnc(-c2ccccc2O)cc1-c1cnn(C2CCN(CCCCCc3ccnc4c3c3ccccc3n4C3CCC(=O)NC3=O)CC2)c1 (stereo not shown) [I-137]

Continued, compound first:

SMILES | Dmax [%]
Nc1nnc(-c2ccccc2O)cc1-c1cnn(C2CCN(CCCCCc3ccc4c(c3)c3cccnc3n4C3CCC(=O)NC3=O)CC2)c1 (stereo not shown) [I-135] | 50 to 70
Nc1nnc(-c2ccccc2O)cc1N1CCN(CCCc2ccnc3c2c2ccccc2n3C2CCC(=O)NC2=O)CC1 (stereo not shown) [I-99] | < 50
Nc1nnc(-c2ccccc2O)cc1-c1cnn([C@H]2CCCN(CCCc3ccc4c(c3)c3cccnc3n4C3CCC(=O)NC3=O)C2)c1 (stereo partly drawn) [I-141, 3-[6-[3-[(3S)-3-[4-[3-amino-6-(2-hydroxyphenyl)pyridazin-4-yl]pyrazol-1-yl]-1-piperidyl]propyl]pyrido[2,3-b]indol-9-yl]piperidine-2,6-dione] | 70 to 90
Nc1nnc(-c2ccccc2O)cc1-c1cnn(CC2CCN(CCCCCc3ccnc4c3c3ccccc3n4C3CCC(=O)NC3=O)CC2)c1 (stereo not shown) [I-104] | > 90
Nc1nnc(-c2ccccc2O)cc1-c1ccc(CN2CCN(CCCCCCCCc3ccc4c(c3)c3cccnc3n4C3CCC(=O)NC3=O)CC2)cc1 (stereo not shown) [I-76] | > 90
Nc1nnc(-c2ccccc2O)cc1-c1cnn(C2CCN(CCCCc3ccc4c(c3)c3cccnc3n4C3CCC(=O)NC3=O)CC2)c1 (stereo not shown) [I-133] | > 90
CN(CCCCCc1cccc2c1c1cccnc1n2C1CCC(=O)NC1=O)Cc1ccc(N2CCN(c3cc(-c4ccccc4O)nnc3N)CC2)cc1 (stereo not shown) [I-95] | < 50
Nc1nnc(-c2ccccc2O)cc1-c1cnn(C2CCCN(CCCc3ccc4c(c3)c3cccnc3n4C3CCC(=O)NC3=O)C2)c1 (stereo not shown) [I-142] | < 50
Nc1nnc(-c2ccccc2O)cc1-c1ccc(CN2CCN(Cc3ccc4c(c3)c3cccnc3n4C3CCC(=O)NC3=O)CC2)cc1 (stereo not shown) [I-105] | < 50
Nc1nnc(-c2ccccc2O)cc1-c1cnn(C2CCN(C3CCC(c4ccc5c(c4)c4cccnc4n5C4CCC(=O)NC4=O)CC3)CC2)c1 (stereo not shown) [I-144] | > 90
Nc1nnc(-c2ccccc2O)cc1-c1ccc(CN2CCN(CCCc3ccc4c(c3)c3cccnc3n4C3CCC(=O)NC3=O)CC2)cc1 (stereo not shown) [I-86] | < 50
Nc1nnc(-c2ccccc2O)cc1-c1cnn(CC2CCN(CCCc3cccc4c3c3cccnc3n4C3CCC(=O)NC3=O)CC2)c1 (stereo not shown) [I-97] | > 90
CN(Cc1ccc(N2CCN(c3cc(-c4ccccc4O)nnc3N)CC2)cc1)CC1CCN(Cc2cccc3c2c2cccnc2n3C2CCC(=O)NC2=O)CC1 (stereo not shown) [I-87] | < 50
Nc1nnc(-c2ccccc2O)cc1-c1cnn(CC2CCN(CCCCOCCCc3cccc4c3c3cccnc3n4C3CCC(=O)NC3=O)CC2)c1 (stereo not shown) [I-89] | < 50
CN(Cc1ccc(N2CCN(c3cc(-c4ccccc4O)nnc3N)CC2)cc1)CC1CCN(Cc2ccc3c(c2)c2cccnc2n3C2CCC(=O)NC2=O)CC1 (stereo not shown) [I-85] | > 90
Nc1nnc(-c2ccccc2O)cc1-c1cnn(CC2CCN(Cc3cccc4c3c3cccnc3n4C3CCC(=O)NC3=O)CC2)c1 (stereo not shown) [I-96] | 50 to 70
Nc1nnc(-c2ccccc2O)cc1-c1cnn(CC2CCN(CCCCCc3cccc4c3c3cccnc3n4C3CCC(=O)NC3=O)CC2)c1 (stereo not shown) [I-98] | > 90
Nc1nnc(-c2ccccc2O)cc1N1CCN(CCCCCc2ccnc3c2c2ccccc2n3C2CCC(=O)NC2=O)CC1 (stereo not shown) [I-100] | < 50
Nc1nnc(-c2ccccc2O)cc1-c1ccc(CN2CCN(CCCCCCc3cccc4c3c3cccnc3n4C3CCC(=O)NC3=O)CC2)cc1 (stereo not shown) [I-79] | 50 to 70
Nc1nnc(-c2ccccc2O)cc1-c1cnn(CC2CCN(CCCc3ccnc4c3c3ccccc3n4C3CCC(=O)NC3=O)CC2)c1 (stereo not shown) [I-103] | > 90
Nc1nnc(-c2ccccc2O)cc1-c1ccc(CN2CCN(CCCCOCCCc3ccc4c(c3)c3cccnc3n4C3CCC(=O)NC3=O)CC2)cc1 (stereo not shown) [I-84] | 50 to 70
Nc1nnc(-c2ccccc2O)cc1-c1ccc(CN2CCN(CCCCCCCc3cccc4c3c3cccnc3n4C3CCC(=O)NC3=O)CC2)cc1 (stereo not shown) [I-80] | > 90
Nc1nnc(-c2ccccc2O)cc1N1CC2CCC(C1)N2c1ncc(C2CCN(CCCc3ccc4c(c3)c3cccnc3n4C3CCC(=O)NC3=O)CC2)cn1 (stereo not shown) [I-138, 3-[6-[3-[4-[2-[3-[3-amino-6-(2-hydroxyphenyl)pyridazin-4-yl]-3,8-diazabicyclo[3.2.1]octan-8-yl]pyrimidin-5-yl]-1-piperidyl]propyl]pyrido[2,3-b]indol-9-yl]piperidine-2,6-dione] | > 90
Nc1nnc(-c2ccccc2O)cc1N1CC2CCC(C1)N2c1ncc(C2CCN(CCCc3ccnc4c3c3ccccc3n4C3CCC(=O)NC3=O)CC2)cn1 (stereo not shown) [I-145, 3-(4-(3-(4-(2-(3-(3-amino-6-(2-hydroxyphenyl)pyridazin-4-yl)-3,8-diazabicyclo[3.2.1]octan-8-yl)pyrimidin-5-yl)piperidin-1-yl)propyl)-9H-pyrido[2,3-b]indol-9-yl)piperidine-2,6-dione] | > 90
Nc1nnc(-c2ccccc2O)cc1N1CCN(CCCc2cccc3c2c2cccnc2n3C2CCC(=O)NC2=O)CC1 (stereo not shown) [I-91] | < 50
Nc1nnc(-c2ccccc2O)cc1N1CCN(CCCCCc2cccc3c2c2cccnc2n3C2CCC(=O)NC2=O)CC1 (stereo not shown) [I-92] | < 50
CN(Cc1ccc(N2CCN(c3cc(-c4ccccc4O)nnc3N)CC2)cc1)Cc1cccc2c1c1cccnc1n2C1CCC(=O)NC1=O (stereo not shown) [I-93] | < 50
Nc1nnc(-c2ccccc2O)cc1-c1ccc(CN2CCN(CCCCCCCc3ccnc4c3c3ccccc3n4C3CCC(=O)NC3=O)CC2)cc1 (stereo not shown) [I-83] | 70 to 90
